Test results reported in patent US11248017B2, “Anti-inflammatory composition including novel kaempferol-based compound derived from post-fermented tea” (AMOREPACIFIC CORPORATION, priority 2017, dated 2022).

Assays:
IL-8 (Interleukin 8) = test: IL-8 production inhibition experiment (ELISA); type: cell-based, Human; settings: for IL-8: human fibroblasts, 500 μM H2O2 24 h, then test substance (33: 100 μg/ml) 48 h, culture medium
Protocol: (§1) Human fibroblasts (PromoCell, Germany) were seeded into 6-well culture plates at a concentration of 1×10^5 cells and incubated in 37° C., 5% CO2 incubator for 24 hours. After 500 μM of H2O2 was treated in a well and stimulated for 24 hours, the kaempferol3-O-[2-O″-(E)-p-coumaroyl][beta-D-glucopyranosyl-(1-3)-O-alpha-L-rhamnopyranosyl-(1→6)-O-beta-D-glucopyranoside](‘new material 33’) was treated at a concentration of 100 μg/ml each, and was reacted for 48 hours. After completion of the reaction, the culture medium was collected and subjected to ELISA analysis. At this time, α-bisabolol, which is a material frequently used as an anti-inflammation agent and an abirritant, was used as a control. PGE2 used Assay Design's kit and IL-6 and IL-8 used Endogen's kit, and the experiment was conducted according to the method specified in each company's manual. (‘33’ means new material 33) Inhibitory effect={1−(test sample−control)/(H2O2−control)}×100 <Equation 1>

IL-6 (Interleukin 6) = test: IL-6 production inhibition experiment (ELISA); type: cell-based, Human; settings: for IL-6: human fibroblasts, 500 μM H2O2 24 h, then test substance (33: 100 μg/ml) 48 h, culture medium
Protocol: as §1

PGE2 (Prostaglandin E2) = test: PGE2 production inhibition experiment (ELISA); type: cell-based, Human; settings: for PGE2: human fibroblasts, 500 μM H2O2 24 h, then test substance (33: 100 μg/ml) 48 h, culture medium
Protocol: as §1

skin = test: Skin accumulation stimulation experiment, human repeated insult patch test (HRIPT); type: in vivo; parameters: key to skin reactivity (ICDRG criteria): −: negative (no response); ±: doubtful or slight erythema, etc.; +: weak reaction (which is accompanied with no phlyctenule), erythema, papule; ++: severe reaction (which is accompanied with phlyctenule), erythema, papule, phlyctenule; +++: strong reaction, bullae reaction; settings: for Average reactivity: 9 patches over 3 weeks, 15 subjects, less than 3 = stable composition
Protocol: Human repeated insult patch tests (HRIPT) were performed to confirm the skin accumulation stimulation of the kaempferol3-O-[2-O″-(E)-p-coumaroyl][beta-D-glucopyranosyl-(1→3)-O-alpha-L-rhamnopyranosyl-(1→6)-O-beta-D-glucopyranoside] and to calculate the concentration range available for the skin.
Specifically, 15 healthy adult subjects were randomly selected, and the test composition (the skin composition including an emulsifier, a stabilizer, purified water, etc. in addition to the compound) containing 0.5 wt %, 1 wt %, and 3 wt % of the compound was added dropwise by 20 μl per chamber (IQ chamber, Epitest Ltd, Finland). After 24 hours from patching the upper right part of the back of a subject, it was replaced with the new patch. A total of 9 patches were conducted, three times a week for total 3 weeks, in such manner, the skin reactions before and after patch were examined every time, and the skin reactions until 48 hours after removing the final patch were observed, and the average reactivity was observed.
The skin response was determined according to the criteria of the International Contact Dermatitis Research Group (ICDRG). ‘New material 33’ in the table above is kaempferol3-O-[2-O″-(E)-p-coumaroyl][beta-D-glucopyranosyl-(1→3)-O-alpha-L-rhamnopyranosyl-(1→6)-O-beta-D-glucopyranoside].

## C[C@@H]1O[C@@H](OC[C@H]2O[C@@H](Oc3c(-c4ccc(O)cc4)oc4cc(O)cc(O)c4c3=O)[C@H](OC(=O)/C=C/c3ccc(O)cc3)[C@@H](O)[C@@H]2O)[C@H](O)[C@H](O[C@@H]2O[C@H](CO)[C@@H](O)[C@H](O)[C@H]2O)[C@H]1O [new material 33, kaempferol3-O-[2-O″-(E)-p-coumaroyl][beta-D-glucopyranosyl-(1→3)-O-alpha-L-rhamnopyranosyl-(1→6)-O-beta-D-glucopyranoside]]
IL-8 (Interleukin 8); Homo sapiens, 100 μg/ml, {1−(test sample−control)/(H2O2−control)}×100, control = a-bisabolol, read-out: Inhibitory Effect according to Equation 1, IL-8
  inhibition at 100 µg/mL: 88.9%
IL-8 (Interleukin 8)
  IL-8: 210 pg/mL
IL-8 (Interleukin 8); in words
  effect on IL-8 increased by H2O2: effect of reducing
IL-6 (Interleukin 6); Homo sapiens, 100 μg/ml, {1−(test sample−control)/(H2O2−control)}×100, control = a-bisabolol, read-out: Inhibitory Effect according to Equation 1, IL-6
  inhibition at 100 µg/mL: 72.3%
IL-6 (Interleukin 6)
  IL-6: 198 pg/mL
IL-6 (Interleukin 6); in words
  effect on IL-6 increased by H2O2: effect of reducing
PGE2 (Prostaglandin E2); Homo sapiens, 100 μg/ml, {1−(test sample−control)/(H2O2−control)}×100, control = a-bisabolol, read-out: Inhibitory Effect according to Equation 1, PGE2
  inhibition at 100 µg/mL: 82.1%
PGE2 (Prostaglandin E2)
  PGE2: 231 pg/mL
PGE2 (Prostaglandin E2); in words
  effect on PGE2 increased by H2O2: effect of reducing
skin; 0.5 wt %, 1st patch
  Number of subjects with + reactivity: 0 person
  Number of subjects with ++ reactivity: 0 person
  Number of subjects with ± reactivity: 0 person
skin; 0.5 wt %, 2nd patch
  Number of subjects with + reactivity: 0 person
  Number of subjects with ++ reactivity: 0 person
  Number of subjects with ± reactivity: 0 person
skin; 0.5 wt %, 3rd patch
  Number of subjects with + reactivity: 0 person
  Number of subjects with ++ reactivity: 0 person
  Number of subjects with ± reactivity: 0 person
skin; 0.5 wt %, 4th patch
  Number of subjects with + reactivity: 0 person
  Number of subjects with ++ reactivity: 0 person
  Number of subjects with ± reactivity: 0 person
skin; 0.5 wt %, 5th patch
  Number of subjects with + reactivity: 0 person
  Number of subjects with ++ reactivity: 0 person
  Number of subjects with ± reactivity: 0 person
skin; 0.5 wt %, 6th patch
  Number of subjects with + reactivity: 0 person
  Number of subjects with ++ reactivity: 0 person
  Number of subjects with ± reactivity: 0 person
skin; 0.5 wt %, 7th patch
  Number of subjects with + reactivity: 0 person
  Number of subjects with ++ reactivity: 0 person
  Number of subjects with ± reactivity: 0 person
skin; 0.5 wt %, 8th patch
  Number of subjects with + reactivity: 0 person
  Number of subjects with ++ reactivity: 0 person
  Number of subjects with ± reactivity: 0 person
skin; 0.5 wt %
  Average reactivity: 0
skin; 0.5 wt %, 9th patch
  Number of subjects with + reactivity: 0 person
  Number of subjects with ++ reactivity: 0 person
  Number of subjects with ± reactivity: 0 person
skin; 1 wt %, 1st patch
  Number of subjects with + reactivity: 0 person
  Number of subjects with ++ reactivity: 0 person
  Number of subjects with ± reactivity: 0 person
skin; 1 wt %, 2nd patch
  Number of subjects with + reactivity: 0 person
  Number of subjects with ++ reactivity: 0 person
  Number of subjects with ± reactivity: 0 person
skin; 1 wt %, 3rd patch
  Number of subjects with + reactivity: 0 person
  Number of subjects with ++ reactivity: 0 person
  Number of subjects with ± reactivity: 0 person
skin; 1 wt %, 4th patch
  Number of subjects with + reactivity: 0 person
  Number of subjects with ++ reactivity: 0 person
  Number of subjects with ± reactivity: 0 person
skin; 1 wt %, 5th patch
  Number of subjects with + reactivity: 0 person
  Number of subjects with ++ reactivity: 0 person
  Number of subjects with ± reactivity: 0 person
skin; 1 wt %, 6th patch
  Number of subjects with + reactivity: 0 person
  Number of subjects with ++ reactivity: 0 person
  Number of subjects with ± reactivity: 0 person
skin; 1 wt %, 7th patch
  Number of subjects with + reactivity: 0 person
  Number of subjects with ++ reactivity: 0 person
  Number of subjects with ± reactivity: 0 person
skin; 1 wt %, 8th patch
  Number of subjects with + reactivity: 0 person
  Number of subjects with ++ reactivity: 0 person
  Number of subjects with ± reactivity: 0 person
skin; 1 wt %
  Average reactivity: 0
skin; 1 wt %, 9th patch
  Number of subjects with + reactivity: 0 person
  Number of subjects with ++ reactivity: 0 person
  Number of subjects with ± reactivity: 0 person
skin; 3 wt %, 1st patch
  Number of subjects with + reactivity: 0 person
  Number of subjects with ++ reactivity: 0 person
  Number of subjects with ± reactivity: 0 person
skin; 3 wt %, 2nd patch
  Number of subjects with + reactivity: 0 person
  Number of subjects with ++ reactivity: 0 person
  Number of subjects with ± reactivity: 0 person
skin; 3 wt %, 3rd patch
  Number of subjects with + reactivity: 0 person
  Number of subjects with ++ reactivity: 0 person
  Number of subjects with ± reactivity: 0 person
skin; 3 wt %, 4th patch
  Number of subjects with + reactivity: 0 person
  Number of subjects with ++ reactivity: 0 person
  Number of subjects with ± reactivity: 0 person
skin; 3 wt %, 5th patch
  Number of subjects with + reactivity: 0 person
  Number of subjects with ++ reactivity: 0 person
  Number of subjects with ± reactivity: 0 person
skin; 3 wt %, 6th patch
  Number of subjects with + reactivity: 0 person
  Number of subjects with ++ reactivity: 0 person
  Number of subjects with ± reactivity: 0 person
skin; 3 wt %, 7th patch
  Number of subjects with + reactivity: 0 person
  Number of subjects with ++ reactivity: 0 person
  Number of subjects with ± reactivity: 0 person
skin; 3 wt %, 8th patch
  Number of subjects with + reactivity: 0 person
  Number of subjects with ++ reactivity: 0 person
  Number of subjects with ± reactivity: 0 person
skin; 3 wt %
  Average reactivity: 0
skin; 3 wt %, 9th patch
  Number of subjects with + reactivity: 0 person
  Number of subjects with ++ reactivity: 0 person
  Number of subjects with ± reactivity: 0 person
skin; content range 0.5 to 3 wt %, all subjects
  skin reactivity (ICDRG criteria): −
skin; content range 0.5 to 3 wt %, in words
  cumulative irritation of the skin: no cumulative irritation of the skin

## α-bisabolol [a-bisabolol, reference compound]
IL-8 (Interleukin 8)
  IL-8: 200 pg/mL
IL-6 (Interleukin 6)
  IL-6: 180 pg/mL
PGE2 (Prostaglandin E2)
  PGE2: 205 pg/mL
